Measured values from PubChem BioAssay AID2060903 (Molecular Pharmacology Branch, DTP, NCI, 2025).

System: 377384-186-R-J1-PDC complex spheroid viability
Assay: Anticancer human tumor 377384-186-R-J1-PDC patient-derived pancreatic carcinoma cell line growth inhibition [RAS]
Conditions: for IC50: curve of first compound; for viability, T/C: stronger effect = lower value
Procedure, shortened: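 Multi-cell-type spheroids: tumor cells plus HUVEC endothelial cells and mesenchymal stem cells. RAS-pathway inhibitors were combined with targeted agents, each dosed in half-log steps down from clinical Cmax, or from 10 microM when Cmax was unknown.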

[1] = second compound 0.000949 µM, first compound 0.0316 µM
[2] = second compound 0.000949 µM, first compound 0.1 µM
[3] = second compound 0.000949 µM, first compound 0.316 µM
[4] = second compound 0.000949 µM, first compound 1 µM
[5] = second compound 0.000949 µM, first compound 3.16 µM
[6] = second compound 0.000949 µM, first compound 10 µM
[7] = second compound 0.003 µM, first compound 0.0316 µM
[8] = second compound 0.003 µM, first compound 0.1 µM
[9] = second compound 0.003 µM, first compound 0.316 µM
[10] = second compound 0.003 µM, first compound 1 µM
[11] = second compound 0.003 µM, first compound 3.16 µM
[12] = second compound 0.003 µM, first compound 10 µM
[13] = second compound 0.00949 µM, first compound 0.0316 µM
[14] = second compound 0.00949 µM, first compound 0.1 µM
[15] = second compound 0.00949 µM, first compound 0.316 µM
[16] = second compound 0.00949 µM, first compound 1 µM
[17] = second compound 0.00949 µM, first compound 3.16 µM
[18] = second compound 0.00949 µM, first compound 10 µM
[19] = second compound 0.03 µM, first compound 0.0316 µM
[20] = second compound 0.03 µM, first compound 0.1 µM
[21] = second compound 0.03 µM, first compound 0.316 µM
[22] = second compound 0.03 µM, first compound 1 µM
[23] = second compound 0.03 µM, first compound 3.16 µM
[24] = second compound 0.03 µM, first compound 10 µM
[25] = second compound 0.0949 µM, first compound 0.0316 µM
[26] = second compound 0.0949 µM, first compound 0.1 µM
[27] = second compound 0.0949 µM, first compound 0.316 µM
[28] = second compound 0.0949 µM, first compound 1 µM
[29] = second compound 0.0949 µM, first compound 3.16 µM
[30] = second compound 0.0949 µM, first compound 10 µM
[31] = second compound 0.3 µM, first compound 0.0316 µM
[32] = second compound 0.3 µM, first compound 0.1 µM
[33] = second compound 0.3 µM, first compound 0.316 µM
[34] = second compound 0.3 µM, first compound 1 µM
[35] = second compound 0.3 µM, first compound 3.16 µM
[36] = second compound 0.3 µM, first compound 10 µM
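Note: spheroids exposed to compounds for seven days before readout.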

`Cc1nc(N2CCC3(CC2)COC(C)C3N)c(CO)nc1Sc1ccnc(N)c1Cl` (stereo unspecified) + CCn1c(-c2cc(N3CCN(C)CC3)cnc2C(C)OC)c2c3cc(ccc31)-c1csc(n1)CC(NC(=O)C1CC1C)C(=O)N1CCCC(N1)C(=O)OCC(C)(C)C2 was tested, and the IC50 (second compound 0.000949 µM) was < 31.6 nM, the IC50 (second compound 0.003 µM) was < 31.6 nM and the IC50 (second compound 0.00949 µM) was < 31.6 nM. For the same compound, the IC50 (second compound 0.03 µM) was < 31.6 nM, the IC50 (second compound 0.0949 µM) was < 31.6 nM and the IC50 (second compound 0.3 µM) was < 31.6 nM. For the same compound, the viability, T/C [1] was 28.9%, the viability, T/C [2] was 15.6% and the viability, T/C [3] was 5.63%. The viability, T/C [4] was 3.93%, the viability, T/C [5] was 2.14% and the viability, T/C [6] was 1.26%. It also gave a viability, T/C [7] of 5.98%, a viability, T/C [8] of 3.1% and a viability, T/C [9] of 1.7%. The viability, T/C [10] was 1.39%, the viability, T/C [11] was 0.72% and the viability, T/C [12] was 0.71%. The viability, T/C [13] was 2.71%, the viability, T/C [14] was 2.19% and the viability, T/C [15] was 1.28%. It also gave a viability, T/C [16] of 1.66%, a viability, T/C [17] of 0.87% and a viability, T/C [18] of 0.71%. The viability, T/C [19] was 2.03%, the viability, T/C [20] was 1.9% and the viability, T/C [21] was 1.46%. It also gave a viability, T/C [22] of 1.09%, a viability, T/C [23] of 0.71% and a viability, T/C [24] of 0.28%. The viability, T/C [25] was 1.82%, the viability, T/C [26] was 1.54% and the viability, T/C [27] was 1.69%. The viability, T/C [28] was 0.9%, the viability, T/C [29] was 0.56% and the viability, T/C [30] was 0.2%. It also gave a viability, T/C [31] of 1.8%, a viability, T/C [32] of 1.68% and a viability, T/C [33] of 1.39%. The viability, T/C [34] was 1.08%, the viability, T/C [35] was 0.69% and the viability, T/C [36] was 0.21%.
With `NC1c2ccccc2OC12CCN(c1cnc3c(N4CCCc5ncccc54)n[nH]c3n1)CC2` (stereo unspecified) + CCn1c(-c2cc(N3CCN(C)CC3)cnc2C(C)OC)c2c3cc(ccc31)-c1csc(n1)CC(NC(=O)C1CC1C)C(=O)N1CCCC(N1)C(=O)OCC(C)(C)C2 the IC50 (second compound 0.000949 µM) was < 31.6 nM, the IC50 (second compound 0.003 µM) was < 31.6 nM and the IC50 (second compound 0.00949 µM) was < 31.6 nM. For the same compound, the IC50 (second compound 0.03 µM) was < 31.6 nM, the IC50 (second compound 0.0949 µM) was < 31.6 nM and the IC50 (second compound 0.3 µM) was < 31.6 nM. The viability, T/C [1] was 5.69%, the viability, T/C [2] was 3.23% and the viability, T/C [3] was 1.88%. It also gave a viability, T/C [4] of 1.71%, a viability, T/C [5] of 1.35% and a viability, T/C [6] of 0.78%. It also gave a viability, T/C [7] of 2.74%, a viability, T/C [8] of 1.37% and a viability, T/C [9] of 1.06%. It also gave a viability, T/C [10] of 0.67%, a viability, T/C [11] of 0.28% and a viability, T/C [12] of 0.2%. It also gave a viability, T/C [13] of 1.78%, a viability, T/C [14] of 1.22% and a viability, T/C [15] of 0.77%. For the same compound, the viability, T/C [16] was 0.41%, the viability, T/C [17] was 1.43% and the viability, T/C [18] was 0.08%. The viability, T/C [19] was 2.14%, the viability, T/C [20] was 1.39% and the viability, T/C [21] was 1%. For the same compound, the viability, T/C [22] was 0.36%, the viability, T/C [23] was 0.18% and the viability, T/C [24] was 0.1%. It also gave a viability, T/C [25] of 1.61%, a viability, T/C [26] of 1.57% and a viability, T/C [27] of 0.67%. The viability, T/C [28] was 0.17%, the viability, T/C [29] was 0.13% and the viability, T/C [30] was 0.29%. The viability, T/C [31] was 1.41%, the viability, T/C [32] was 1.04% and the viability, T/C [33] was 0.5%. The viability, T/C [34] was 0.27%, the viability, T/C [35] was 0.14% and the viability, T/C [36] was 0.1%.
With `Nc1ccn(C2OC(CO)C(O)C2(F)F)c(=O)n1` (stereo unspecified) + CCn1c(-c2cc(N3CCN(C)CC3)cnc2C(C)OC)c2c3cc(ccc31)-c1csc(n1)CC(NC(=O)C1CC1C)C(=O)N1CCCC(N1)C(=O)OCC(C)(C)C2 the IC50 (second compound 0.000949 µM) was < 3.16 nM, the IC50 (second compound 0.003 µM) was < 3.16 nM and the IC50 (second compound 0.00949 µM) was < 3.16 nM. The IC50 (second compound 0.03 µM) was < 3.16 nM, the IC50 (second compound 0.0949 µM) was < 3.16 nM and the IC50 (second compound 0.3 µM) was < 3.16 nM. For the same compound, the viability, T/C (second compound 0.000949 µM, first compound 0.00316 µM) was 41.1%, the viability, T/C (second compound 0.000949 µM, first compound 0.01 µM) was 18.4% and the viability, T/C [1] was 4.12%. It also gave a viability, T/C [2] of 3.96%, a viability, T/C [3] of 3.39% and a viability, T/C [4] of 3.44%. The viability, T/C (second compound 0.003 µM, first compound 0.00316 µM) was 19%, the viability, T/C (second compound 0.003 µM, first compound 0.01 µM) was 8.01% and the viability, T/C [7] was 5.2%. The viability, T/C [8] was 2.62%, the viability, T/C [9] was 3.06% and the viability, T/C [10] was 2.55%. It also gave a viability, T/C (second compound 0.00949 µM, first compound 0.00316 µM) of 4.2%, a viability, T/C (second compound 0.00949 µM, first compound 0.01 µM) of 3.81% and a viability, T/C [13] of 3.02%. For the same compound, the viability, T/C [14] was 2.45%, the viability, T/C [15] was 2.8% and the viability, T/C [16] was 2.63%. The viability, T/C (second compound 0.03 µM, first compound 0.00316 µM) was 2.29%, the viability, T/C (second compound 0.03 µM, first compound 0.01 µM) was 3.33% and the viability, T/C [19] was 2.15%. It also gave a viability, T/C [20] of 2.11%, a viability, T/C [21] of 3.23% and a viability, T/C [22] of 2.21%. It also gave a viability, T/C (second compound 0.0949 µM, first compound 0.00316 µM) of 2.1%, a viability, T/C (second compound 0.0949 µM, first compound 0.01 µM) of 2.03% and a viability, T/C [25] of 1.97%. The viability, T/C [26] was 1.8%, the viability, T/C [27] was 1.92% and the viability, T/C [28] was 1.8%. It also gave a viability, T/C (second compound 0.3 µM, first compound 0.00316 µM) of 1.98%, a viability, T/C (second compound 0.3 µM, first compound 0.01 µM) of 2.16% and a viability, T/C [31] of 1.73%. It also gave a viability, T/C [32] of 1.47%, a viability, T/C [33] of 1.95% and a viability, T/C [34] of 2.17%.
